Measured values as given in patent publication US20180353489A1, “Antibacterial Pharmaceutical Combination and Method for Treating Gram-Negative Bacteria Infections” (TENNOR THERAPEUTICS (SUZHOU) LIMITED, priority 2016, published 2018).
Read-outs that look alike come from different tables or passages of the source.

Assays:
[1] = tested on: Escherichia coli ATCC 25922; assay: Checkerboard MBC test; format: cell-based; conditions: for MBC99.9/MIC / MBC99.9: used separately
From the text: (§1) A standard 96-well plate checkerboard test platform for the determination of Minimum Inhibitory Concentration (MIC) and Minimum Bactericidal Concentration (MBC) as endpoints is used for the test of the antibacterial activity of the pharmaceutical combination in vitro. Escherichia coli ATCC 25922 strain is used as the representative strain of Gram-negative bacteria in initial investigations. The correlation between the observed results and the major Gram-negative bacteria in hospital—Pseudomonas aeruginosa, Klebsiella pneumoniae, Acinetobacter baumannii and Stenotrophomonas maltophilia—is assessed by a similar method.
Minimum inhibitory concentration (MIC) endpoints of the combination of TNP-2092 and polymyxin B or E were determined by the two-agent checkerboard assay method based on the CLSI broth microdilution susceptibility method. To obtain a 96-well plate for each pharmaceutical combination, two separate intermediate dilution plates were prepared as described. A sufficient volume of a standard cell inoculum of ˜5×10^5 CFU/mL was prepared in cation adjusted Mueller Hinton broth with 0.002% (vol:vol) polysorbate-80 using the direct colony suspension method. 0.2 mL of the above suspension was added to the wells in the first column of a first 96-well plate (ID-1), and 0.1 mL of the suspension was added to all remaining wells. 0.2 mL of the same cell inoculum suspension was added to the wells in the first row of a second plate (ID-2), and 0.1 mL of suspension was added to all the remaining wells. An appropriately concentrated drug stock “compound-1” (representing one of the two drugs to be tested in the combination) was added to each well in the first column of the plate ID-1. This was then diluted serially two-fold across the plate, changing tips at each transfer, until column 11 was reached. From column 11, 0.1 mL was removed and discarded and column 12 contains only cell inoculum and no drug. Next, an appropriately concentrated drug stock “Compound 2” (representing the second of the two agents to be tested in the combination) was then diluted into each well of row 1 in plate ID2. This was then diluted serially two-fold down the plate, changing tips at each transfer, until row 7 was reached. 0.1 mL was removed from row 7 and discarded and row 8 contains only cell inoculum and no drug. Finally, 0.05 mL was transferred from both ID1 and ID2 into a third 96 well “destination MIC test plate” (see FIG. 1). […] Column 12 is used to call the MIC of compound 2 alone and row 8 is used to call the MIC of compound 1 when tested alone. Note that the intersection of row 8 and column 12 contains no drug and serves as the growth control. The “destination MIC test plates” were then incubated statically at 35° C. for 18-24 h and the MIC of each agent alone or in combination was read visually.
For minimum bactericidal concentration (MBC) endpoints, 0.008 mL portions of each well, after MICs were called, were transferred from the MIC test plates by an automatic sampler to a charcoal agar omni recipient plate. Drops were allowed to air dry in a biological cabinet and the plates incubated inverted for 18-24 h a 35° C. The MBC was scored as the lowest consecutive antimicrobial drug concentration required to kill ≥99.9% of viable input test organisms in 18-24 h, or ≤5 CFU remaining per 0.008 mL drop
(§2) In vitro fractional inhibitory concentration (FIC) was calculated using the following formula: […]
FIC (Fractional inhibitory concentration) or FBC (fractional bactericidal concentration) results were interpreted as synergistic, additive, indifferent, or antagonistic. In cases where no endpoint was observed and the MIC/MBC could not be called, then for the purpose of algebraic calculations, the endpoint was arbitrarily assumed to be one dilution greater than the tested range

[2] = tested on: Escherichia coli ATCC 25922; assay: Checkerboard broth microdilution MIC test; format: cell-based
From the text: as §1
Escherichia coli ATCC 25922 is a quality control strain for MIC testing as recommended by the Clinical and Laboratory Standards Institute (CLSI), which was obtained originally from the American Type Culture Collection (ATCC) repository and was used as a model of Gram-negative pathogen described herein. Other Gram-negative bacteria strains, including two strains of Pseudomonas aeruginosa, two strains of Klebsiella pneumoniae, Acinetobacter baumannii and Stenotrophomonas maltophilia, were also obtained from ATCC.
Minimum inhibitory concentration (MIC) endpoints of the combination of TNP-2092 and polymyxin B or E were determined by the two-agent checkerboard assay method based on the CLSI broth microdilution susceptibility method. To obtain a 96-well plate for each pharmaceutical combination, two separate intermediate dilution plates were prepared as described. A sufficient volume of a standard cell inoculum of ˜5×10^5 CFU/mL was prepared in cation adjusted Mueller Hinton broth with 0.002% (vol:vol) polysorbate-80 using the direct colony suspension method. […] The “destination MIC test plates” were then incubated statically at 35° C. for 18-24 h and the MIC of each agent alone or in combination was read visually.
as §2

CO[C@H]1/C=C/O[C@@]2(C)Oc3c(C)c(O)c4c(O)c(c(/C=N/N5CCC(N(C)C6([C@@H]7CCN(c8c(F)cn9c(=O)c(C(=O)O)cc(C%10CC%10)c9c8C)C7)CC6)CC5)c(O)c4c3C2=O)NC(=O)/C(C)=C\C=C\[C@H](C)[C@H](O)[C@@H](C)[C@@H](O)[C@@H](C)[C@H](OC(C)=O)[C@@H]1C [TNP-2092]
MBC ([1]; ATCC25922, used separately, read-out: MBC99.9): 0.25 µg/mL
MBC99.9/MIC [1]: 1
MIC ([2]; ATCC25922, used separately, read-out: MIC): 0.25 µg/mL

polymyxin B
MBC99.9 [1]: 8 µg/mL
MBC99.9/MIC [1]: 4
MIC ([2]; used separately): 2 µg/mL

polymyxin E
MBC99.9 [1]: 8 µg/mL
MBC99.9/MIC [1]: 8
MIC ([2]; used separately): 1 µg/mL
